Data reported in the NIST ThermoML archive (doi:10.1016/j.jct.2015.05.024).

Assay: xn = mol fraction of the nth substance listed
Conditions: 100 kPa, Liquid; for mass density: Vibrating tube method; for speed of sound: Frequency=5 MHz, Pulse-echo method

OCCOCCOCCO [triethylene glycol] + O
Conditions	mass density [kg/m3]	speed of sound [m/s]
278.15 K, x1 = 0.0107	1013.31	–
278.15 K, x1 = 0.02047	1024.39	–
278.15 K, x1 = 0.03972	1043.4	–
278.15 K, x1 = 0.04979	1051.97	–
278.15 K, x1 = 0.06996	1066.64	–
278.15 K, x1 = 0.09424	1080.57	–
278.15 K, x1 = 0.1481	1100.99	–
278.15 K, x1 = 0.2006	1112.25	–
278.15 K, x1 = 0.2502	1118.67	–
278.15 K, x1 = 0.2988	1122.73	–
278.15 K, x1 = 0.3492	1125.61	–
278.15 K, x1 = 0.3925	1127.4	–
278.15 K, x1 = 0.4502	1129.18	–
278.15 K, x1 = 0.4877	1130.08	–
278.15 K, x1 = 0.5004	1130.35	–
278.15 K, x1 = 0.5739	1131.64	–
278.15 K, x1 = 0.58	1131.73	–
278.15 K, x1 = 0.6465	1132.58	–
278.15 K, x1 = 0.651	1132.63	–
278.15 K, x1 = 0.7008	1133.14	–
278.15 K, x1 = 0.7471	1133.54	–
278.15 K, x1 = 0.7677	1133.7	–
278.15 K, x1 = 0.82	1134.08	–
278.15 K, x1 = 0.8623	1134.35	–
278.15 K, x1 = 0.8792	1134.45	–
278.15 K, x1 = 0.8975	1134.56	–
278.15 K, x1 = 0.9203	1134.69	–
278.15 K, x1 = 0.9514	1134.86	–
278.15 K, x1 = 0.9692	1134.96	–
278.15 K, x1 = 1	1135.14	–
283.15 K, x1 = 0.0107	1012.65	–
283.15 K, x1 = 0.02047	1023.4	–
283.15 K, x1 = 0.03972	1041.83	–
283.15 K, x1 = 0.04979	1050.13	–
283.15 K, x1 = 0.06996	1064.35	–
283.15 K, x1 = 0.09424	1077.85	–
283.15 K, x1 = 0.1481	1097.71	–
283.15 K, x1 = 0.2006	1108.7	–
283.15 K, x1 = 0.2502	1115	–
283.15 K, x1 = 0.2988	1119.01	–
283.15 K, x1 = 0.3492	1121.86	–
283.15 K, x1 = 0.3925	1123.64	–
283.15 K, x1 = 0.4502	1125.41	–
283.15 K, x1 = 0.4877	1126.3	–
283.15 K, x1 = 0.5004	1126.57	–
283.15 K, x1 = 0.5739	1127.85	–
283.15 K, x1 = 0.58	1127.94	–
283.15 K, x1 = 0.6465	1128.79	–
283.15 K, x1 = 0.651	1128.84	–
283.15 K, x1 = 0.7008	1129.34	–
283.15 K, x1 = 0.7471	1129.73	–
283.15 K, x1 = 0.7677	1129.89	–
283.15 K, x1 = 0.82	1130.26	–
283.15 K, x1 = 0.8623	1130.52	–
283.15 K, x1 = 0.8792	1130.62	–
283.15 K, x1 = 0.8975	1130.73	–
283.15 K, x1 = 0.9203	1130.86	–
283.15 K, x1 = 0.9514	1131.03	–
283.15 K, x1 = 0.9692	1131.12	–
283.15 K, x1 = 1	1131.29	–
288.15 K, x1 = 0.000601	–	1469.7
288.15 K, x1 = 0.001928	–	1476.6
288.15 K, x1 = 0.00461	–	1490.1
288.15 K, x1 = 0.008532	–	1508.9
288.15 K, x1 = 0.0107	1011.72	–
288.15 K, x1 = 0.01366	–	1532
288.15 K, x1 = 0.01989	–	1557.7
288.15 K, x1 = 0.02047	1022.17	–
288.15 K, x1 = 0.02548	–	1578.7
288.15 K, x1 = 0.03449	–	1609.1
288.15 K, x1 = 0.03972	1040.07	–
288.15 K, x1 = 0.04517	–	1639.9
288.15 K, x1 = 0.04979	1048.13	–
288.15 K, x1 = 0.05131	–	1655.2
288.15 K, x1 = 0.05713	–	1668.3
288.15 K, x1 = 0.06261	–	1679.5
288.15 K, x1 = 0.0692	–	1691.5
288.15 K, x1 = 0.06996	1061.93	–
288.15 K, x1 = 0.07424	–	1699.8
288.15 K, x1 = 0.08016	–	1708.5
288.15 K, x1 = 0.08433	–	1714.1
288.15 K, x1 = 0.08832	–	1719
288.15 K, x1 = 0.09298	–	1724.2
288.15 K, x1 = 0.09424	1075.05	–
288.15 K, x1 = 0.09657	–	1727.8
288.15 K, x1 = 0.1007	–	1731.7
288.15 K, x1 = 0.1021	–	1732.9
288.15 K, x1 = 0.1045	–	1734.9
288.15 K, x1 = 0.1091	–	1738.4
288.15 K, x1 = 0.1208	–	1745.7
288.15 K, x1 = 0.1237	–	1747.2
288.15 K, x1 = 0.1281	–	1749.1
288.15 K, x1 = 0.1302	–	1750
288.15 K, x1 = 0.133	–	1751
288.15 K, x1 = 0.1394	–	1753
288.15 K, x1 = 0.1441	–	1754.2
288.15 K, x1 = 0.1474	–	1754.8
288.15 K, x1 = 0.1481	1094.39	–
288.15 K, x1 = 0.1578	–	1756.3
288.15 K, x1 = 0.1678	–	1756.8
288.15 K, x1 = 0.1774	–	1756.7
288.15 K, x1 = 0.1904	–	1755.7
288.15 K, x1 = 0.2006	1105.14	–
288.15 K, x1 = 0.2055	–	1753.5
288.15 K, x1 = 0.2329	–	1748
288.15 K, x1 = 0.2502	1111.33	–
288.15 K, x1 = 0.2559	–	1742.5
288.15 K, x1 = 0.2967	–	1731.9
288.15 K, x1 = 0.2988	1115.27	–
288.15 K, x1 = 0.3235	–	1725.1
288.15 K, x1 = 0.3492	1118.09	–
288.15 K, x1 = 0.3699	–	1714
288.15 K, x1 = 0.3925	1119.86	–
288.15 K, x1 = 0.4089	–	1705.2
288.15 K, x1 = 0.4502	1121.62	–
288.15 K, x1 = 0.4877	1122.51	–
288.15 K, x1 = 0.5004	1122.77	–
288.15 K, x1 = 0.5029	–	1686.5
288.15 K, x1 = 0.5739	1124.05	–
288.15 K, x1 = 0.58	1124.13	–
288.15 K, x1 = 0.6337	–	1667
288.15 K, x1 = 0.6465	1124.97	–
288.15 K, x1 = 0.651	1125.02	–
288.15 K, x1 = 0.7008	1125.51	–
288.15 K, x1 = 0.745	–	1657.9
288.15 K, x1 = 0.7471	1125.9	–
288.15 K, x1 = 0.7677	1126.06	–
288.15 K, x1 = 0.82	1126.42	–
288.15 K, x1 = 0.8623	1126.68	–
288.15 K, x1 = 0.8792	1126.78	–
288.15 K, x1 = 0.8795	–	1649.6
288.15 K, x1 = 0.8975	1126.88	–
288.15 K, x1 = 0.9203	1127.01	–
288.15 K, x1 = 0.9514	1127.17	–
288.15 K, x1 = 0.9612	–	1645.9
288.15 K, x1 = 0.9692	1127.27	–
288.15 K, x1 = 1	1127.43	1643.9
293.15 K, x1 = 0.000681	–	1485.6
293.15 K, x1 = 0.002463	–	1494
293.15 K, x1 = 0.005001	–	1505.7
293.15 K, x1 = 0.007787	–	1518
293.15 K, x1 = 0.01463	–	1546.1
293.15 K, x1 = 0.02045	–	1567.9
293.15 K, x1 = 0.0276	–	1592.1
293.15 K, x1 = 0.03276	–	1608
293.15 K, x1 = 0.0418	–	1632.7
293.15 K, x1 = 0.04898	–	1649.9
293.15 K, x1 = 0.05561	–	1664
293.15 K, x1 = 0.06315	–	1678
293.15 K, x1 = 0.0678	–	1685.8
293.15 K, x1 = 0.0736	–	1694.6
293.15 K, x1 = 0.08161	–	1705.1
293.15 K, x1 = 0.08886	–	1713.2
293.15 K, x1 = 0.09701	–	1721
293.15 K, x1 = 0.1043	–	1726.7
293.15 K, x1 = 0.1091	–	1730
293.15 K, x1 = 0.1142	–	1733
293.15 K, x1 = 0.12	–	1735.9
293.15 K, x1 = 0.1325	–	1740.6
293.15 K, x1 = 0.1374	–	1741.9
293.15 K, x1 = 0.1445	–	1743.3
